Legend:
PTH1R KO mice = test: iPTH in PTH1R KO and PTH1R+/+ mice: PPCT IVD volume; format: in vivo, mouse
Method: Mice carrying the PTH1R gene flanked by loxP sites (PTH1R^flox/flox) were mated with Noto^Cre mice to generate mice bearing Noto^Cre and a floxed PTH1R allele in their germline. These mice were backcrossed to homozygous floxed mice (Noto^Cre/+/PTH1R^flox/+::PTH1R^flox/flox) to generate mice with inactivation of both alleles in notochord derived cells (genotype Noto^+/+::PTH1R^flox/flox). […] The genotype of transgenic mice was determined by PCR analyses of genomic DNA isolated from mouse tails. […] The images were reconstructed and analyzed using the GPU-CT-Reconstruction software (applied by the BL13W1 experimental station) and the VG Studio Max 3D software (version 2.1, Volume Graphics GmbH, Germany) respectively. […] The 3D quantitative analysis of IVDs was performed with the commercially available Image Pro Analyzer 3D software (Version 7.0, Media Cybernetics, Inc., USA). The 3D structural parameters analyzed for the mean height and volume and thickness distribution of IVDs. The trabecular bone of L4 was segmented from the bone marrow and analyzed to determine the trabecular bone volume fraction (BV/TV), trabecular thickness (Tb. Th), trabecular number (Tb. N) and trabecular separation (Tb. Sp).

β6 integrin promoter = test: Chromatin immunoprecipitation of pCREB on β6 integrin promoter in NP cells; format: cell-based, mouse; details: ChIP, most distal CREB site (Primer 1)
Method: The ChIP assays were carried out using the Thermo Fisher ChIP Kit (catalog number: 26156). The crude homogenate from the NP cells was crosslinked with 1% formaldehyde at room temperature for 10 min. The reaction was stopped by adding glycine (0.25 M). After centrifugation, the pellet was collected and lysed in SDS lysis buffer containing protease inhibitor cocktail. The lysis was sonicated until the DNA was broken into fragments with a mean length of 200-1,000 bp. The samples were first pre-cleaned with protein G agarose and then subjected to immunoprecipitation overnight with […] of rabbit antibodies against pCREB (CST, 1:50) With […] of normal rabbit serum overnight at 4° C. The 10-20% of the sample for immunoprecipitation was used as an input (a positive control).

SMILES: CC[C@H](C)[C@H](NC(=O)[C@H](CCC(=O)O)NC(=O)[C@H](CO)NC(=O)[C@@H](NC(=O)[C@@H](N)CO)C(C)C)C(=O)N[C@@H](CCC(N)=O)C(=O)N[C@@H](CC(C)C)C(=O)N[C@@H](CCSC)C(=O)N[C@@H](Cc1cnc[nH]1)C(=O)N[C@@H](CC(N)=O)C(=O)N[C@@H](CC(C)C)C(=O)NCC(=O)N[C@@H](CCCCN)C(=O)N[C@@H](Cc1cnc[nH]1)C(=O)N[C@@H](CC(C)C)C(=O)N[C@@H](CC(N)=O)C(=O)N[C@@H](CO)C(=O)N[C@@H](CCSC)C(=O)N[C@@H](CCC(=O)O)C(=O)N[C@@H](CCCN=C(N)N)C(=O)N[C@H](C(=O)N[C@@H](CCC(=O)O)C(=O)N[C@@H](Cc1c[nH]c2ccccc12)C(=O)N[C@@H](CC(C)C)C(=O)N[C@@H](CCCN=C(N)N)C(=O)N[C@@H](CCCCN)C(=O)N[C@@H](CCCCN)C(=O)N[C@@H](CC(C)C)C(=O)N[C@@H](CCC(N)=O)C(=O)N[C@@H](CC(=O)O)C(=O)N[C@H](C(=O)N[C@@H](Cc1cnc[nH]1)C(=O)N[C@@H](CC(N)=O)C(=O)N[C@@H](Cc1ccccc1)C(=O)O)C(C)C)C(C)C [PTH (1-34), teriparatide]
- increase of IVD volume by iPTH (PTH1R KO mice; 12-month-old PTH1R KO mice): abolished
- IVD volume (PTH1R KO mice; 12-month-old PTH1R+/+ mice): Increase
- binding of pCREB to the β6 integrin promoter (β6 integrin promoter): inducing direct binding of pCREB

Reference: US20210205638A1, “PARATHYROID HORMONE AND REGENERATION OF DEGENERATIVE DISCS DISEASE” (THE JOHNS HOPKINS UNIVERSITY, priority 2017, published 2021)
